Experimental data reported in patent US11046699B2, “Pyrazolo-pyrimidin-amino-cycloalkyl compounds and their therapeutic uses” (RAPT THERAPEUTICS, INC., priority 2018, dated 2021).
Where two headings read alike, the source gives them in different places.

Target: GCN2 (Homo sapiens, UniProt Q9P2K8)
Test: GCN2 enzymatic endpoint assay: phosphorylation of GFP-eIF2α measured by TR-FRET (Lanthascreen)
Format: biochemical
How it was run: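 2 μM ATP, 80 nM GFP-eIF2α, RT, 90 min; EDTA stop. Tb-anti-phospho antibody TR-FRET read, 520/495 nm ratio.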

[1] = GCN2 biochemical IC50, 4 nM GCN2, 2 μM ATP, 80 nM GFP-eIF2α, 90 min RT, read-out: GCN2 activity
[2] = tested as described in Example 77, compound and/or hydrochloride, dihydrochloride or trifluoroacetic acid salt, read-out: IC 50 Activity

Chain of GCN2 (Q9P2K8 whole entry): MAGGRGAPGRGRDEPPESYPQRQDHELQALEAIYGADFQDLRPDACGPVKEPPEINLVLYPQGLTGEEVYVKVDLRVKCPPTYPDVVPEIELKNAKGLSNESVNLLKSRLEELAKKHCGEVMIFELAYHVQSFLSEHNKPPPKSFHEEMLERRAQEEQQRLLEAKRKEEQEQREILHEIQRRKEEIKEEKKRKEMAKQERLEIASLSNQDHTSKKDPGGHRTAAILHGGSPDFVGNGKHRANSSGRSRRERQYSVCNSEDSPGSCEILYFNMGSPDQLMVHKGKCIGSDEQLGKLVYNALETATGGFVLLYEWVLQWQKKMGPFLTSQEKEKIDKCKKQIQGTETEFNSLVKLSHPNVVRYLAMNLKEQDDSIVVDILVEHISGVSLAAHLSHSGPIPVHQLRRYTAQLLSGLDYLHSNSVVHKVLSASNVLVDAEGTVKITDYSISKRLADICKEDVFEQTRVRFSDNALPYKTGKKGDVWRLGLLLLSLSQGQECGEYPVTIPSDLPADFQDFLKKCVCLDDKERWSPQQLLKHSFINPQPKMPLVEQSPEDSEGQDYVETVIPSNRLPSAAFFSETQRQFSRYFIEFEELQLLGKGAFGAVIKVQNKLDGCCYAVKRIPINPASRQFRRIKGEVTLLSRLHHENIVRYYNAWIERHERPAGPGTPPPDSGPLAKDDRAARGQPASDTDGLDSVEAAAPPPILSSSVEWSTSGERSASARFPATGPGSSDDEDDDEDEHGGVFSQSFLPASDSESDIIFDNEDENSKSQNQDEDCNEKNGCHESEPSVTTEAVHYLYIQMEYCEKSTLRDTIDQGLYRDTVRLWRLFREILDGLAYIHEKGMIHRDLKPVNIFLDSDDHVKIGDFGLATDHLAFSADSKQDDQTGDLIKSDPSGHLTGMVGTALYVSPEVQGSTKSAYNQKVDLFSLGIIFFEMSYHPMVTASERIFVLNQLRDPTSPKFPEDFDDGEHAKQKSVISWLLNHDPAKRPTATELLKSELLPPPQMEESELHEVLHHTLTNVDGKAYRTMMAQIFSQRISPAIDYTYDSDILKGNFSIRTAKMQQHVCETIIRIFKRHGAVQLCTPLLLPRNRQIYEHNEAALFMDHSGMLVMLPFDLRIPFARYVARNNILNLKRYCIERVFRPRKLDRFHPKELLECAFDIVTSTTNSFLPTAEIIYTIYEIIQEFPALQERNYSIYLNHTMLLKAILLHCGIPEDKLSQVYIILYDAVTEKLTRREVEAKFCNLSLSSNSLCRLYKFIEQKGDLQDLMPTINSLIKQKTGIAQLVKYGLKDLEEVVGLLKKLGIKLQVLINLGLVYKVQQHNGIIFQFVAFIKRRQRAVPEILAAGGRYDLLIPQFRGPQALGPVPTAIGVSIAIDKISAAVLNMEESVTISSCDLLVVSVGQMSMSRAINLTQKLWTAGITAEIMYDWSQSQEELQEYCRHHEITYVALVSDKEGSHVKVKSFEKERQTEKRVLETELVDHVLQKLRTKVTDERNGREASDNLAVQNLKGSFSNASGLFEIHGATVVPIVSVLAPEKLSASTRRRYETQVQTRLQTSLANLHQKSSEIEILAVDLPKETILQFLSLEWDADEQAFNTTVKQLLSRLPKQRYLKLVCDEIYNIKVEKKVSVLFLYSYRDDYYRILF

Row | IC50 [1] [nM] | IC50 [2] [nM] | SMILES
1 | 500 to 1000 | – | COCCC(=O)N[C@H]1C[C@H](Nc2ncc3c(Br)nn(-c4ccc5ncccc5c4)c3n2)C1 [Example 3, N-((1r,3r)-3-((3-bromo-1-(quinolin-6-yl)-1H-pyrazolo[3,4-d]pyrimidin-6-yl)amino)cyclobutyl)-3-methoxypropanamide]
2 | – | < 25 | CS(=O)(=O)C1CC[C@@H](Nc2ncc3c(Br)nn(-c4cc(CCN)c5nccnc5c4)c3n2)C1 (stereo partly drawn) [1-[8-(2-aminoethyl)quinoxalin-6-yl]-3-bromo-N-[(1R)-3-methylsulfonylcyclo-pentyl]pyrazolo[3,4-d]pyrimidin-6-amine]
3 | – | 25 to 200 | CNC(=O)[C@]1(C)CC[C@@H](Nc2ncc3c(Br)nn(-c4ccc(-c5nnc(C(C)(C)N)s5)c(C#N)c4)c3n2)C1 [(1R,3R)-3-[[1-[4-[5-(1-amino-1-methyl-ethyl)-1,3,4-thiadiazol-2-yl]-3-cyano-phenyl]-3-bromo-pyrazolo[3,4-d]pyrimidin-6-yl]amino]-N,1-dimethyl-cyclopentanecarboxamide]
4 | – | 25 to 200 | CNC(=O)[C@]1(C)CC[C@@H](Nc2ncc3c(Br)nn(-c4ccc5nc(N)nc(N)c5c4)c3n2)C1 [(1R,3R)-3-[[3-bromo-1-(2,4-diamino-quinazolin-6-yl)pyrazolo[3,4-d]pyrimidin-6-yl]amino]-N,1-dimethyl-cyclopentane-carboxamide; 2,2,2-trifluoroacetic acid]
5 | – | 25 to 200 | CNC(=O)[C@]1(C)CC[C@@H](Nc2ncc3c(Br)nn(-c4cc(C5=CCNC5)c5ncccc5c4)c3n2)C1 [(1R,3R)-3-[[3-bromo-1-[8-(2,5-dihydro-1H-pyrrol-3-yl)-6-quinolyl]pyrazolo [3,4-d]pyrimidin-6-yl]amino]-N,1-dimethyl-cyclopentanecarboxamide]
6 | – | 25 to 200 | CCN1C(=O)COc2cc(-n3nc(Br)c4cnc(N[C@@H]5CC[C@@](C)(C(=O)NC)C5)nc43)ccc21 [(1R,3R)-3-[[3-bromo-1-(4-ethyl-3-oxo-1,4-benzoxazin-7-yl)pyrazolo[3,4-d]pyrimidin-6-yl]amino]-N,1-dimethyl-cyclopentane-carboxamide]
7 | – | 25 to 200 | O=C([C@@H]1CC[C@@H](Nc2ncc3c(Br)nn(-c4ccc5ncccc5c4)c3n2)C1)N1C[C@H]2C[C@@H]1CO2 [((1R,4R)-2-oxa-5-azabicyclo[2.2.1]heptan-5-yl) ((1R,3R)-3-((3-bromo-1-(quinolin-6-yl)-1H-pyrazolo[3,4-d]pyrimidin-6-yl)amino)cyclo-pentyl)methanone]
8 | – | 25 to 200 | CNC(=O)[C@]1(C)CC[C@@H](Nc2ncc3c(Br)nn(-c4cc(Cl)cc(CNS(C)(=O)=O)c4)c3n2)C1 [(1R,3R)-3-[[3-bromo-1-[3-chloro-5-(methanesulfonamidomethyl)phenyl]pyrazolo[3,4-d]pyrimidin-6-yl]amino]-N,1-dimethyl-cyclopentanecarboxamide]
9 | – | 25 to 200 | NC(=O)C1(NC(=O)[C@@H]2CC[C@@H](Nc3ncc4c(Br)nn(-c5cc(F)c6ncccc6c5)c4n3)C2)CCC1 [(1R,3R)-3-[[3-bromo-1-(8-fluoro-6-quinolyl)pyrazolo[3,4-d]pyrimidin-6-yl]amino]-N-(1-carbamoylcyclobutyl)cyclopentane-carboxamide]
10 | – | 25 to 200 | CNC(=O)[C@@]1(C)CC[C@@H](Nc2ncc3c(I)nn(-c4ccc(-c5nnc(C)o5)cc4)c3n2)C1 [(1S,3R)-3-[[3-iodo-1-[4-(5-methyl-1,3,4-oxadiazol-2-yl)phenyl]pyrazolo[3,4-d]pyrimidin-6-yl]amino]-N,1-dimethyl-cyclopentanecarboxamide]
11 | – | < 25 | CNC(=O)[C@]1(C)CC[C@@H](Nc2ncc3c(Br)nn(-c4ccc(-c5ncco5)c(OCCO)c4)c3n2)C1 [(1R,3R)-3-[[3-bromo-1-[3-(2-hydroxy-ethoxy)-4-oxazol-2-yl-phenyl]pyrazolo [3,4-d]pyrimidin-6-yl]amino]-N,1-dimethyl-cyclopentanecarboxamide]
12 | – | 25 to 200 | CNC(=O)[C@]1(C)CC[C@@H](Nc2ncc3c(Br)nn(-c4ccc5c(c4)S(=O)(=O)CC(=O)N5C)c3n2)C1
13 | – | 25 to 200 | CNC(=O)[C@]1(C)CC[C@@H](Nc2ncc3c(Br)nn(-c4ccc(-c5nnc(C)o5)c(F)c4)c3n2)C1 [(1R,3R)-3-[[3-bromo-1-[3-fluoro-4-(5-methyl-1,3,4-oxadiazol-2-yl)phenyl]pyrazolo[3,4-d]pyrimidin-6-yl]amino]-N,1-dimethyl-cyclopentanecarboxamide]
14 | – | < 25 | CNC(=O)[C@]1(C)CC[C@@H](Nc2ncc3c(Br)nn(-c4ccc(-c5ncco5)c(NC(=O)C5CNC5)c4)c3n2)C1 [N-[5-[3-bromo-6-[[(1R,3R)-3-methyl-3-(methylcarbamoyl)cyclopentyl]amino]pyrazolo[3,4-d]pyrimidin-1-yl]-2-oxazol-2-yl-phenyl]azetidine-3-carboxamide]
15 | < 25 | – | CNC(=O)[C@]1(C)CC[C@@H](Nc2ncc3c(Br)nn(-c4ccc(-c5nnc(C)o5)c(C#N)c4)c3n2)C1 [Example 35, (1R,3R)-3-((3-bromo-1-(3-cyano-4-(5-methyl-1,3,4-oxadiazol-2-yl)phenyl)-1H-pyrazolo[3,4-d]pyrimidin-6-yl)amino)-N,1-dimethylcyclopentane-1-carboxamide; 2,2,2-trifluoroacetic acid]
16 | 25 to 200 | – | CNC(=O)[C@]1(C)CC[C@@H](Nc2ncc3c(Br)nn(-c4ccc(-c5ncco5)c(CC#N)c4)c3n2)C1 [Example 45, (1R,3R)-3-((3-bromo-1-(3-(cyanomethyl)-4-(oxazol-2-yl)phenyl)-1H-pyrazolo[3,4-d]pyrimidin-6-yl)amino)-N,1-dimethylcyclopentane-1-carboxamide; 2,2,2-trifluoroacetic acid]
17 | – | 25 to 200 | CNC(=O)C1(C)CC[C@@H](Nc2ncc3c(Br)nn(-c4cccc(C(C)(C)O)c4)c3n2)C1 (stereo partly drawn) [(3R)-3-[[3-bromo-1-[3-(1-hydroxy-1-methyl-ethyl)phenyl]pyrazolo[3,4-d]pyrimidin-6-yl]amino]-N,1-dimethyl-cyclopentane-carboxamide]
18 | – | 25 to 200 | CNC(=O)[C@]1(C)CC[C@@H](Nc2ncc3c(Br)nn(-c4ccc5c(c4)OCC(=O)N5CC(F)(F)F)c3n2)C1 [(1R,3R)-3-[[3-bromo-1-[3-oxo-4-(2,2,2-trifluoroethyl)-1,4-benzoxazin-7-yl]pyrazolo [3,4-d]pyrimidin-6-yl]amino]-N,1-dimethyl-cyclopentanecarboxamide]
19 | < 25 | – | CC[C@@H](N)c1cc(-n2nc(Br)c3cnc(N[C@@H]4CC[C@@](C)(C(=O)NC)C4)nc32)cc2nccnc12 [Example 66, (1R,3R)-3-((1-(8-((R)-1-aminopropyl)quinoxalin-6-yl)-3-bromo-1H-pyrazolo[3,4-d]pyrimidin-6-yl)amino)-N,1-dimethylcyclopentane-1-carboxamide]
20 | 25 to 200 | – | Cc1nnc(-c2ccc(-n3nc(Br)c4cnc(N[C@@H]5CC[C@@H](P(C)(C)=O)C5)nc43)cc2)s1 [Example 57, ((1R,3R)-3-((3-bromo-1-(4-(5-methyl-1,3,4-thiadiazol-2-yl)phenyl)-1H-pyrazolo[3,4-d]pyrimidin-6-yl)amino)cyclopentyl)dimethylphosphine oxide]
21 | – | 25 to 200 | CN1CN(C(=O)[C@@]2(C)CC[C@@H](Nc3ncc4c(Br)nn(-c5cc(F)c6ncccc6c5)c4n3)C2)CC1=O [1-[(1S,3R)-3-[[3-bromo-1-(8-fluoro-6-quinolyl)pyrazolo[3,4-d]pyrimidin-6-yl]amino]-1-methyl-cyclopentanecarbonyl]-3-methyl-imidazolidin-4-one]
22 | – | 25 to 200 | COC(=O)C1CN(C(=O)[C@@H]2CC[C@@H](Nc3ncc4c(Br)nn(-c5ccc6ncccc6c5)c4n3)C2)CCN1 (mixture of isomers)
23 | – | < 25 | O=C(N[C@@H]1CCOC1)[C@@H]1CC[C@@H](Nc2ncc3c(Br)nn(-c4cc(Cl)c5ncccc5c4)c3n2)C1 [(1R,3R)-3-((3-bromo-1-(8-chloroquinolin-6-yl)-1H-pyrazolo[3,4-d]pyrimidin-6-yl)amino)-N-((R)-tetrahydrofuran-3-yl)cyclopentane-1-carboxamide]
24 | – | 25 to 200 | COCCNC(=O)[C@]1(C(C)C)CC[C@@H](Nc2ncc3c(Br)nn(-c4ccc(-c5nnc(C)s5)c(CCC#N)c4)c3n2)C1 [(1R,3R)-3-[[3-bromo-1-[3-(2-cyanoethyl)-4-(5-methyl-1,3,4-thiadiazol-2-yl)phenyl]pyrazolo[3,4-d]pyrimidin-6-yl]amino]-1-isopropyl-N-(2-methoxyethyl)cyclopentane-carboxamide]
25 | < 25 | – | CN(C)C(=O)[C@]1(C)CC[C@@H](Nc2ncc3c(Br)nn(-c4cc(CCN)c5ncccc5c4)c3n2)C1 [Example 30, (1R,3R)-3-((1-(8-(2-aminoethyl)quinolin-6-yl)-3-bromo-1H-pyrazolo[3,4-d]pyrimidin-6-yl)amino)-N,N,1-trimethylcyclopentane-1-carboxamide; 2,2,2-trifluoroacetic acid]
26 | – | 25 to 200 | Cc1nnc(-c2ccc(-n3nc(Br)c4cnc(N[C@@H]5CC[C@@](C)(C(=O)N6CCCC6)C5)nc43)cc2)s1 [[(1R,3R)-3-[[3-bromo-1-[4-(5-methyl-1,3,4-thiadiazol-2-yl)phenyl]pyrazolo[3,4-d]pyrimidin-6-yl]amino]-1-methyl-cyclopentyl]-pyrrolidin-1-yl-methanone]
27 | – | < 25 | CNC(=O)[C@]1(C)CC[C@@H](Nc2ncc3c(Br)nn(-c4cc(CCN)c5cnccc5c4)c3n2)C1
28 | – | 25 to 200 | CNC(=O)[C@]1(C)CC[C@@H](Nc2ncc3c(Br)nn(-c4ccc(-c5ncco5)c([C@H]5CCNC5)c4)c3n2)C1 [(1R,3R)-3-[[3-bromo-1-[4-oxazol-2-yl-3-[(3R)-pyrrolidin-3-yl]phenyl]pyrazolo[3,4-d]pyrimidin-6-yl]amino]-N,1-dimethyl-cyclopentane-carboxamide]

Row | SMILES | IC50 [1] [nM] | IC50 [2] [nM]
29 | CNC(=O)[C@]1(C)CC[C@@H](Nc2ncc3c(Br)nn(-c4cc(Cl)cc(CCNS(C)(=O)=O)c4)c3n2)C1 | – | 25 to 200
30 | C[C@@]1(CO)CC[C@@H](Nc2ncc3c(Br)nn(-c4cc(CCN)c5ncccc5c4)c3n2)C1 | – | 25 to 200
31 | CNC(=O)[C@]1(C)CC[C@@H](Nc2ncc3c(Br)nn(-c4cc(Br)cc(CN)c4)c3n2)C1 | – | 25 to 200
